Test results taken from patent US9597274B2, “Peptides and their use in the treatment of skin” (Avon Products, Inc., priority 2015, dated 2017).

Experiments:
[1] = tested on: Human dermal fibroblast cells; test: Secreted hyaluronic acid (HA) in the media (HA Elisa kit) after 48 h peptide treatment; type: cell-based; conditions: percent change relative to vehicle control
Protocol: (§1) Human dermal fibroblast cells were grown in a 96 well plate in DMEM media (available from Corning, N.Y.) supplemented with 10% Fetal Bovine Serum (FBS) and L-glutamine (0.07×10^5 cells/plate). After reaching about 75% confluence, cells were transferred into DMEM media without FBS and incubated for 4-6 hours. Next, cells were treated with a peptide at 0.00001%, 0.0001%, 0.001% final concentration in DMEM media without FBS for 48 h. After treatment, the media were collected and cell viability was measured using MTT. The amount of collagen secreted was tested in the media using HTRF human pro-collagen I kit (available from Cisbio Inc., Bedford, Mass.). The amount of secreted Hyaluronic Acid (HA) was tested in the media using HA Elisa kit (available from Corgenix, Broomfield, Colo.).
(§2) The results are summarized in Table 12 below as percent change of pro-collagen I and/or HA production relative to vehicle control (peptide concentrations provided in parentheses) using the following keys: […]

[2] = tested on: Human dermal fibroblast cells; test: Pro-collagen I secretion into the media (HTRF human pro-collagen I kit) after 48 h peptide treatment; type: cell-based; conditions: percent change relative to vehicle control
Protocol: as §1, §2

[3] = peptide tested at 0.00001%, 0.0001%, 0.001%, concentration not given

Substance	Increase in HA Production ([1]; peptide concentration 0.0001%)	Increase in Pro-Collagen I Production [2, 3]	Increase in Pro-Collagen I Production ([2]; peptide concentration 0.001%)	Increase in HA Production [1, 3]	Increase in HA Production ([1]; peptide concentration 0.001%)
MVV (listed as Homo sapiens)	+(0.0001%) (+: 20-50%)	0 (0: <10%)			
QILSKLRL (listed as Homo sapiens)			+(0.001%) (+: 10-30%)		
QPED (listed as Homo sapiens)		0 (0: <10%)		0 (0: <20%)	
LRLK (listed as Homo sapiens)		0 (0: <10%)			+(0.001%) (+: 20-50%)
LENTKRS (listed as Homo sapiens)		0 (0: <10%)		0 (0: <20%)	
GDALQPE (listed as Homo sapiens)		0 (0: <10%)		0 (0: <20%)	
